According to patent US11980667B2, “Short TAT oligomers for drug delivery” (The Trustees of Columbia University in the City of New York, priority 2017, dated 2024):
“And” between values parts separate entries of the source, which are not always exact repeats. Equal entries are not always repeated.

How the values were obtained:
C6 glioma = settings: IA-TCH, 0.5 mg, N=3
Description: For in vivo tumor delivery studies, rats were implanted with C6 brain tumor cells as previously described. […] They were scarified 10 minutes later and the brains were harvested and sectioned.
Fluorescence and electron multiplying charge-coupled device imaging. Fluorescence imaging was done with a white light excitation through a 470 nm filter with central frequency. Emission was observed through a 520 nm band pass filter using a fluorescence camera (Prosilica GE™ AVI Technologies Inc.). All images were normalized to the background and to the injected FITC-TAT concentrations—a sample of which was imaged alongside in a capillary tube.

9L glioma [1] = experiment: IA-TCH versus IV delivery: uptake by multi-spectral imaging of gross specimens; type: in vivo, rat
Source text: (§1) Comparison of […] and IV TAT delivery. Fisher 344 rats weighing about 200 g were utilized. During initial surgery under ketamine-xylazine isoflurane anesthesia 5×10^5 9 L cells were implanted 3 mm below the skull and 2-3 mm posterior and lateral to the bregma through a 1 mm craniotomy. […] The animals were assigned separately to IV and IA-TCH groups. On the day of drug delivery, animals were sedated with isoflurane and injected with ketamine/xylazine. The tail vein was cannulated for intravenous access. Under aseptic precautions, a tracheostomy and carotid cannulation were performed. Anesthesia was maintained by mechanical ventilation with isoflurane (1.8-2.2%). Thereafter animals were turned prone on a stereotactic frame. The skull was exposed and the region of tumor implantation was shaved to transparency. A laser Doppler probe was implanted on the skull with the aid of a plastic holder to assess cerebral/tumor blood flow. Rectal temperature, pulse pleth (volume), pulse oxygen saturation, EKG, expired and inspired gas composition, brain and skin blood flow with lase Doppler were continuously monitored.
(§2) Transient cerebral hypoperfusion and fluorescein-labeled TAT monomer injection. IA injections were made during TCH by the following method. Reduction of blood flow was achieved by bolus IV injections of adenosine (2 mg) and esmolol (2 mg), and cold saline (1.5 mL at 4° C.). Typically such an intervention decreases cerebral blood flow to about 20% of the baseline. The heart rate response varies from sinus bradycardia to a sinus pause. However, physiological parameters rapidly recover within 3-5 minutes. […] For each animal, a test IA injection was done prior to the onset of hypotension to ensure delivery of the desired injection volume and the injection sequence was resumed after bolus IV injections of hypotensive drugs.
Postmortem imaging. In preliminary experiments, known quantities of fluorescein-labeled TAT monomer was dissolved in intralipid and imaged using the multi-spectral imaging system. The multi-spectral imaging system contained two 470 nm light emitting diodes that evenly illuminated the test sample (Thor Labs Inc., NJ). An Evolve-512 (Photometerics Inc., Tucson, AZ) photon multiplying charge coupled device was used to image the sample through a 530 nm band pass filter. The camera is capable of performing background corrections and measuring the photon counts from the region of interest. Imaging conditions (sample, light source, and camera placements) were standardized throughout the experiment.
Immediately after sacrifice, the brains were harvested and immersed in cold saline. […] Samples were loaded on two capillary glass tubes that were placed alongside the tissue samples. Typically each specimen had 4 sections, one of which through the plane of the tumor was sent for frozen section, the remainder were placed in paraformaldehyde for paraffin blocks and histological sectioning.

9L glioma tumors [2] = settings: IA-TCH, 1 mL of 0.5 mg/mL, 15 minutes
Description: In a separate experiment, 14 days post-implantation of 9L glioma tumors, eight rats were anesthetized and prepared for IA-TCH. Blood flow reduction for TCH was achieved by bolus IV injection of adenosine and esmolol that were flushed with cold saline. […] Animals were sacrificed 15 minutes after TAT injection. Brain tissue was harvested. Gross sections were imaged with multi-spectral imaging (MSI) system using a photon counting cooled fluorescence camera. A 490 nm light was used for excitation while 525 nm filter was used for imaging the emitted light.

9L glioma tumors [3] = settings: four arrest cycles IA-TCH; single arrest from historical controls
Description: Multiple Arrest Study. 9L glioma tumors were implanted into five rats. 14 days post-implantation, the rats were anesthetized and prepared for the injections. Blood flow reduction was achieved by bolus IV injection of adenosine and esmolol that were flushed with cold saline. Four arrest cycles were used to deliver fluorescein-conjugated TAT monomer via intra-arterial injection with a 5 minute recovery period between each arrest. Animals were sacrificed 15 minutes after injection. Brain tissues were harvested an imaged using a multi-spectral imaging system using a photon counted cooled fluorescence camera. A 470 nm light was used for excitation while a 530 nm filter was used for imaging the emitted light.

9L glioma [4] = experiment: IA-TCH versus IV delivery: uptake by confocal microscopy imaging of frozen sections; type: in vivo, rat; settings: n = 6
Source text: as §1, §2
Frozen sections (10 μm thick) were imaged under a Nikon confocal microscope with 470 nm excitation. Due to the large size of the tissue sample, small sections of images were obtained and then assembled together. An adjacent section was stained with hematoxylin and eosin to confirm the size and location of the tumor. The total fluorescence in the tumor region, in the non-tumor ipsi-lateral hemisphere, and in the corresponding region contra-lateral to the tumor was quantified. The contra-lateral hemisphere was used for background correction.

[5] = Delivery of cell-penetrating peptides to the brain of healthy rats, confocal microscopy; type: in vivo, rat
Source text: Animal preparation, IA-TCH injection, and brain tumor implantation. Animal protocols were approved by the Columbia University Institutional Animal Care and Use Committee (IACUC). Studies were primarily conducted on Sprague-Dawley rats weighing 250 to 300 grams. In the case of electron multiplying charge-coupled device imaging studies, Fisher 344 rats implanted with 9L brain tumors were utilized. The surgical preparation including anesthesia, carotid and femoral cannulation, cerebral blood flow and vital sign monitoring, as well as in vivo fluorescence imaging have been previously described in detail.
IA injections of cell-penetrating peptides (CPPs) were made during TCH as 65 μL pulses totaling 1 ml in volume. TCH was produced by a bolus injection of adenosine, esmolol, and cold saline. Animals were allowed to hemodynamically recover from TCH and euthanized 10 minutes after injection. Uptake of CPPs was assessed with a fluorescence camera and with confocal fluorescence microscopy.
Cell-penetrating peptides. Two experimental cell-penetrating peptides were tested: 1. octaarginine, also called (Arg)8 or R-8 (SEQ ID NO: 13) and 2. trans-activator of transcription or TAT (Lifetien Inc.). The 14 amino acid peptide sequence for TAT is […]COOH (SEQ ID NO: 11). Both cell-penetrating peptides (CPPs) were labeled with fluorescein so that their distribution could be identified by multispectral imaging and with fluorescence microscopy of the frozen brain sections.
Fluorescence and electron multiplying charge-coupled device imaging.

Q: Which “Deposition in tumor (semi-quantitative fluorescence imaging)” value (C6 glioma) does the source give for `N=C(N)NCCC[C@H](NC(=O)CNC(=O)c1ccc2c(c1)C(=O)OC21c2ccc(O)cc2Oc2cc(O)ccc21)C(=O)N[C@@H](CCCCN)C(=O)N[C@@H](CCCCN)C(=O)N[C@@H](CCCNC(=N)N)C(=O)N[C@@H](CCCNC(=N)N)C(=O)N[C@@H](CCC(N)=O)C(=O)N[C@@H](CCCNC(=N)N)C(=O)N[C@@H](CCCNC(=N)N)C(=O)N[C@@H](CCCNC(=N)N)C(=O)N1CCC[C@H]1C(=O)N1CCC[C@H]1C(=O)N[C@@H](CCC(N)=O)C(=O)N[C@@H](CCC(N)=O)C(=O)O` [fluorescein-labeled TAT monomer, 5-FAM-GRKKRRQRRR PPQQ-COOH] here?
A: preferentially targeted to the tumor mass in all animals

Q: And the “Tumor concentration compared to brain tissue on the ipsi-lateral side” value (9L glioma [1]; IA-TCH)?
A: 6.1 fold

Q: What about the Contralateral fluorescence (9L glioma [1]; IA-TCH, n = 6) of the same compound?
A: 0.029 ± 0.012 AU

Q: And the Ipsi/contra-lateral ratio (9L glioma [1]; IA-TCH, n = 6)?
A: 1.7 ± 0.5

Q: What about the Ipsilateral fluorescence (9L glioma [1]; IA-TCH, n = 6) of the same compound?
A: 0.047 ± 0.019 AU

Q: What about the Tumor fluorescence (9L glioma [1]; IA-TCH, n = 6) of the same compound?
A: 0.277 ± 0.139 AU

Q: What about the Tumor/contralateral ratio (9L glioma [1]; IA-TCH, n = 6) of the same compound?
A: 10.1 ± 4.9

Q: And the Tumor/ipsilateral ratio (9L glioma [1]; IA-TCH, n = 6)?
A: 6.1 ± 2.6

Q: And the “Tumor concentration compared to brain tissue on the ipsi-lateral side” value (9L glioma [1]; IV)?
A: 2.3 fold and 2.4 fold

Q: What about the Ipsi/contra-lateral ratio (9L glioma [1]; IV, n = 6) of the same compound?
A: 1.1 ± 0.3

Q: What about the Ipsilateral fluorescence (9L glioma [1]; IV, n = 6) of the same compound?
A: 0.028 ± 0.005 AU

Q: What about the Tumor fluorescence (9L glioma [1]; IV, n = 6) of the same compound?
A: 0.063 ± 0.030 AU

Q: And the Tumor/contralateral ratio (9L glioma [1]; IV, n = 6)?
A: 2.7 ± 1.5

Q: What about the Tumor/ipsilateral ratio (9L glioma [1]; IV, n = 6) of the same compound?
A: 2.4 ± 1.2

Q: What about the “Overall effectiveness of IA-TCH relative to IV” value (9L glioma [1]; rat, in vivo) of the same compound?
A: 4 ×

Q: And the “Concentration in the tumor versus the opposite side” value (9L glioma tumors [2])?
A: 13 ×

Q: And the “Uptake in the tumor compared to adjacent regions” value (9L glioma tumors [2])?
A: 5 ×

Q: And the “Deposition, multiple arrest compared to single-arrest” value (9L glioma tumors [3])?
A: increases the amount of TAT deposition but also increases non-specific deposition

Q: What about the Contralateral fluorescence (9L glioma [4]; IA-TCH) of the same compound?
A: 161 ± 94 AU

Q: What about the Ipsi-lateral fluorescence (9L glioma [4]; IA-TCH) of the same compound?
A: 353 ± 76 AU

Q: What about the Ipsi/contralateral ratio (9L glioma [4]; IA-TCH) of the same compound?
A: 2.7 ± 1.4

Q: What about the Tumor fluorescence (9L glioma [4]; IA-TCH) of the same compound?
A: 1758 ± 474 AU

Q: What about the Tumor/contralateral ratio (9L glioma [4]; IA-TCH) of the same compound?
A: 13.8 ± 7.6

Q: And the Tumor/ipsi-lateral ratio (9L glioma [4]; IA-TCH)?
A: 4.9 ± 0.7

Q: And the Contralateral fluorescence (9L glioma [4]; IV)?
A: 205 ± 67 AU

Q: What about the Ipsi-lateral fluorescence (9L glioma [4]; IV) of the same compound?
A: 216 ± 65 AU

Q: And the Ipsi/contralateral ratio (9L glioma [4]; IV)?
A: 1.1 ± 0.5

Q: And the Tumor fluorescence (9L glioma [4]; IV)?
A: 528 ± 246 AU

Q: What about the Tumor/contralateral ratio (9L glioma [4]; IV) of the same compound?
A: 3.0 ± 1.4

Q: And the Tumor/ipsi-lateral ratio (9L glioma [4]; IV)?
A: 2.4 ± 1.1

Q: And the Deposition by hemisphere ([5]; IA-TCH carotid injection, confocal microscopy)?
A: detectable deposition preferentially to the hemisphere ipsilateral to carotid injection

Q: What about the “Parenchymal deposition versus dose” value ([5]; IA-TCH, dose range 0.25-1 mg) of the same compound?
A: dose dependent increase

Q: And the “Distribution in the brain (semi-quantitative)” value ([5]; IA-TCH, confocal microscopy)?
A: more diffuse deposition within the white matter

Q: What about the “Distribution in the brain” value ([5]; IV delivery of 0.5 mg, FIG. 17 F) of the same compound?
A: diffuse uptake of TAT in and beyond the blood vessels was seen preferentially in the white matter
